Reference: patent US11331364B2, “Use for JNK inhibitor molecules for treatment of various diseases” (Xigen Inflammation Ltd., priority 2014, dated 2022)
Square brackets hold non-standard residues; d marks the D form. Peptide text beside a SMILES is read from it.

Columns and labels:
[1] = system: established type II collagen arthritis in rats; assay: Chronic established type II collagen arthritis, daily IV 14 days; format: in vivo, rat
Source text: Rat collagen arthritis is an experimental model of polyarthritis that has been widely used for preclinical testing of numerous anti-arthritic agents that are either under preclinical or clinical investigation or are currently used as therapeutics in this disease. […] Animals were terminated on arthritis day 14.

[2] = system: Endotoxin-Induced Uveitis (EIU) model in rats; assay: Action duration in endotoxin-induced uveitis (EIU), clinical scoring and PMN cells quantification; format: in vivo, rat
Method: […] (18) female Lewis rats (36 eyes) were randomly divided into 6 groups of 3 animals each. EIU was induced by a single footpad injection of 100 µl sterile pyrogen-free saline containing 200 µg of LPS (Lipopolysaccharides from Salmonella typhimurium, Sigma-Aldrich, France)(2 mg/ml).
Animals were treated 48 hours, 1 week, 2 weeks or 4 weeks before EIU induction by intravenous injection of the JNK inhibitor according to SEQ ID NO: 172 (“XG-104”) at a single dose of 1 mg/kg (dose volume 1 ml/kg) in the tail vein. Dexamethasone 2 mg/kg or vehicle (NaCl 0.9%) were injected intravenously immediately before EIU induction.
The effect of the JNK inhibitor according to SEQ ID NO: 172 (“XG-104”) on EIU was evaluated using clinical scoring and PMN cells quantification 24 hours after induction. Ocular examinations were performed by slit lamp at 24 hours i.e. at the clinical peak of the disease in this model. The intensity of clinical ocular inflammation was scored on a scale from 0 to 5 for each eye: • Grade 0: no inflammation, • Grade 1: presence of a minimal iris and conjunctival vasodilatation but without the observation of flare or cells in the anterior chamber (AC), • Grade 2: presence of moderate iris and conjunctival vessel dilation but without evident flare or cells in the AC, • Grade 3: presence of intense iris vessels dilation, flare and less than 10 cells per slit lamp, field in the AC, • Grade 4: presence of more severe clinical signs than grade 3, with more than 10 cells in the AC with or without the formation of a hypopyon, • Grade 5: presence of intense inflammatory reaction, fibrin formation in the AC and total seclusion of the pupil.
For histology, eighteen eyeballs (one per animal) were collected and fixed for 1 h at room temperature in phosphate buffered saline (PBS) containing 4% paraformaldehyde before being rinsed overnight in PBS. The next day, samples were embedded in optimal cutting temperature (OTC) compound (Tissue-Tek®, Sakura Finetek, Zoeterwoude, Netherland) and the optic nerve level using a cryostat (Leica CM 3050S, France) and mounted on super-frost slides for histology. After nuclei staining with DAPI (Sigma-Aldrich, France), sections were mounted in PBS/Glycerol (1/1) and observed by fluorescence photomicroscopy (FXA Microphot, Nikon, USA). Digitized micrographs were obtained usinga digital camera (Spot, BFI Optilas, France). PMN cells identified by the shape of their nuclei stained with DAPI, were quantified on histological sections. The analysis was performed with 2 different sections per eye at the optic nerve head level.
Twenty-four hours after LPS induction, clinical scores for the vehicle-treated rats were 4.6±0.2 (mean±SEM, n=8). Reduction was calculated as (grade in vehicle-treated eye—grade in test item treated eye)/(grade in vehicle-treated eye). A significant reduction (*p<0.05, **p<0.01) in the severity of the ocular inflammation was detected 24 hours after induction and intravenous treatment with the JNK inhibitor according to SEQ ID NO: 172 (“XG-104”) (1 mg/kg) administered 48 hours before EIU induction (mean score: 2.8±0.3), corresponding to a 40% (**) decrease of EIU scores compared with the score observed in vehicle group, 24 hours after induction and intravenous treatment with the JNK inhibitor according to SEQ ID NO: 172 (“XG-104”) (1 mg/kg) administered 1 week before EIU induction (mean score: 3.3±0.3), corresponding to a 27% (*) decrease of EIU scores compared with the score observed in vehicle group, and 24 hours after induction and intravenous treatment with the JNK inhibitor according to SEQ ID NO: 172 (“XG-104”) (1 mg/kg) administered 2 weeks before EIU induction (mean score: 3.0±0.2), corresponding to a 35% (**) decrease of EIU scores compared with the score observed in vehicle group. […]

[3] = Stability (half-life) in human serum, UPLC-MS; details: human serum (10 and 50% in PBS; FIG. 5: 50%), 0.1 mM peptide
Method: The experiment was performed as described by Tugyi et al. (Proc Natl Acad Sci USA, 2005, 413-418). The remaining intact peptide was quantified by UPLC-MS.

human whole blood = assay: PHA-L-induced cytokine release in human whole blood, 3 days; format: cell-based; details: 1, 3, 10 μM, PHA-L 5 μg/mL
Method: FIG. 22 JNK inhibition and TNF-α release in human whole blood. The JNK inhibitor with SEQ ID NO: 172 was added at three different concentrations, namely 1, 3 and 10 μM 1 h before whole blood stimulation with PHA-L (5 μg/mL) for 3 days.
FIG. 23 JNK inhibition and IL-2 release in human whole blood. The JNK inhibitor with SEQ ID NO: 172 was added at three different concentrations, namely 1, 3 and 10 μM 1 h before whole blood stimulation with PHA-L (5 μg/mL) for 3 days.
Whole blood from human healthy volunteers was collected using a venipuncture connected to a pre-labeled vacuum tube containing sodium citrate. Tubes are gently mixed by inversion 7-8 times; and are then kept at RT until stimulation. 350 μl of RPMI+P/S were added into 1.2 ml-96-well plate. 10 times concentrated of SEQ ID NO: 172 was prepared in RPMI+P/S (50 μl per well). 50 μl was added into 1.2 ml-96 well plates. 50 μl of whole blood was then added in each well where either medium alone or JNK inhibitor has been previously added. Whole blood was incubated at 37° C., 5% CO2 for 60 min. 50 μl/well of ligands diluted in RPMI+P/S was prepared, corresponding to the final dilution 10 times concentrated. After 60 min of incubation, ligand was added; wells were then mixed by pipetting up and down the blood. […] Cytokine were then measured using standard Elisa kits. Results are expressed as pg/ml of supernatant of the measured cytokine.

[4] = vs disease controls, IV QD d1-14, Dex 0.05 mg/kg, SEQ ID NO: 172 up to 5 mg/kg
[5] = 1 mg/kg i.v. 1 week before EIU induction
[6] = 1 mg/kg i.v. 2 weeks before EIU induction
[7] = 1 mg/kg i.v. 4 weeks before EIU induction
[8] = 1 mg/kg i.v. 48 hours before EIU induction

CC(C)C[C@H](NC(=O)[C@H](CC(N)=O)NC(=O)[C@H](CC(C)C)NC(=O)[C@@H](NC(=O)[C@@H](C)NC(=O)[C@@H]1CCCN1C(=O)[C@H](CCCNC(=N)N)NC(=O)[C@@H](CCCCN)NC(=O)[C@@H]1CCCN1C(=O)[C@H](CCCNC(=N)N)NC(=O)[C@@H](CCCNC(=N)N)NC(=O)[C@H](CCCNC(=N)N)NC(=O)[C@H](CCCNC(=N)N)NC(=O)[C@H](CCC(N)=O)NC(=O)[C@@H](CCCNC(=N)N)NC(=O)[C@H](CCCNC(=N)N)NC(=O)[C@H](CCCCN)NC(=O)[C@H](CCCCN)NC(=O)[C@H](N)CCCNC(=N)N)[C@@H](C)O)C(=O)N[C@H](Cc1ccccc1)C(N)=O [SEQ ID NO: 172, rKKRrQRRrRPkRPaTLNLf] (H-[dR]KKR[dR]QRR[dR]RP[dK]RP[dA]TLNL[dF]-NH2; N-terminus assumed)
ankle diameter AUC, reduction toward normal ([1]; 1 mg/kg IV QD d1-14): 27% | inhibition of body weight loss vs disease controls ([1]; 1 mg/kg IV QD d1-14): 21% | ankle diameter AUC, reduction toward normal ([1]; 5 mg/kg IV QD d1-14): 43% | ankle histopathology, reduction of summed scores ([1]; 5 mg/kg IV QD d1-14): 25% | final paw weights, reduction toward normal ([1]; 5 mg/kg IV QD d1-14): 26% | inhibition of body weight loss vs disease controls ([1]; 5 mg/kg IV QD d1-14): 25% | knee histopathology, reduction of summed scores ([1]; 5 mg/kg IV QD d1-14): 73% | daily ankle diameter measurements ([1]; 5 mg/kg IV QD, p<0.05 days 4-12): reduced toward normal | effect on organ weights ([1]; IV QD d1-14): no adverse effect on organ weights | spleen weights relative to body weight [1, 4]: not significantly affected | thymus weights relative to body weight [1, 4]: not significantly affected | clinical score (mean±SEM) [2, 5]: 3.3±0.3 | decrease of EIU scores vs vehicle group [2, 5]: 27% | clinical score (mean±SEM) [2, 6]: 3.0±0.2 | decrease of EIU scores vs vehicle group [2, 6]: 35% | number of PMN cells [2, 6]: significantly decreased | reduction of number of PMN cells vs vehicle [2, 6]: 88% | clinical score (mean±SEM) [2, 7]: 4.2±0.1 | decrease of EIU scores vs vehicle group [2, 7]: 9% | number of PMN cells [2, 7]: significantly decreased | reduction of number of PMN cells vs vehicle [2, 7]: 69% | clinical score (mean±SEM) [2, 8]: 2.8±0.3 | decrease of EIU scores vs vehicle group [2, 8]: 40% | time until completely degraded [3]: 14 days | PHA-L-induced IL-2 release (human whole blood): did reduce the PHA-L-induced IL-2 release in a dose-dependent manner | PHA-L-induced TNF-α release (human whole blood): did reduce the PHA-L-induced TNF-α release in a dose-dependent manner
